Measured values from ChEMBL document CHEMBL5465560, “Selectivity Literature for EUbOPEN Chemogenomic Library” (2024).

Assays:
[1] = target: T1, Protein arginine N-methyltransferase 9 (Homo sapiens) (UniProt Q6P2P2); details: at 10 µM
T1 sequence (whole entry): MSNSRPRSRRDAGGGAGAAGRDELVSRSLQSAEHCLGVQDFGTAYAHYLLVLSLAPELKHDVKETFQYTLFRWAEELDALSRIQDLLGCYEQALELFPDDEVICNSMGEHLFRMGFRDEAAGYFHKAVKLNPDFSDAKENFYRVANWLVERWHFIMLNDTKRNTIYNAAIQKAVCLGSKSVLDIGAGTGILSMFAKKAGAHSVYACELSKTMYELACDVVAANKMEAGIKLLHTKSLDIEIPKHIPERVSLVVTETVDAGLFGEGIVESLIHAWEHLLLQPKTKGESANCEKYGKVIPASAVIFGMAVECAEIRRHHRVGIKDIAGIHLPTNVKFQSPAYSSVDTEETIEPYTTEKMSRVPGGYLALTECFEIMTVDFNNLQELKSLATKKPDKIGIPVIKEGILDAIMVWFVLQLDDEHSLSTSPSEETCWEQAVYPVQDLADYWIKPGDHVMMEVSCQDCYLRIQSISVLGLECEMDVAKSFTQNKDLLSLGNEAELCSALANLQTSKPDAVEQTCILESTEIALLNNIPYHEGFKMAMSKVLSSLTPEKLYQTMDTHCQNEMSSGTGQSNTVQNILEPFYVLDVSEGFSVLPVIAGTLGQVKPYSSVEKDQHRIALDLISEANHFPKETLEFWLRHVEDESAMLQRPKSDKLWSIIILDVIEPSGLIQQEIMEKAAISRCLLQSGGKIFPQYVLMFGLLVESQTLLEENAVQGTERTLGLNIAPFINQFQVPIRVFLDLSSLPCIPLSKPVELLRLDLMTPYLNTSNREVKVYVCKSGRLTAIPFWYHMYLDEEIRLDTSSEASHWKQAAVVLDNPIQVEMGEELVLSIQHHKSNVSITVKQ

[2] = target: RAF proto-oncogene serine/threonine-protein kinase (Homo sapiens) (UniProt P04049); test: Selectivity interaction (KinomeScan (DiscoverX)) EUB0000229b RAF1; details: at 10 µM
[3] = target: Activin receptor type-2B (Homo sapiens) (UniProt Q13705); test: Selectivity interaction (KinomeScan (DiscoverX)) EUB0001079a ACVR2B; details: at 1 µM
[4] = target: Phosphatidylinositol 4,5-bisphosphate 3-kinase catalytic subunit beta isoform (Homo sapiens) (UniProt P42338); test: Selectivity interaction (Kinase panel (KiNativ target engagement assay in Jurkat cells)) EUB0001635a PIK3CB; assay type: cell-based; details: Selectivity number of off-targets 0.0, Selectivity number of targets 233.0, Source Knowledge https://www.sciencedirect.com/science/article/pii/S2451945619300674?via%3Dihub, at 1 µM
[5] = target: T2, Serine/threonine-protein kinase 4 (Homo sapiens) (UniProt Q13043); test: Selectivity interaction (Kinase panel (Invitrogen)) EUB0000639a STK4; details: at 200 nM
T2 sequence (whole entry): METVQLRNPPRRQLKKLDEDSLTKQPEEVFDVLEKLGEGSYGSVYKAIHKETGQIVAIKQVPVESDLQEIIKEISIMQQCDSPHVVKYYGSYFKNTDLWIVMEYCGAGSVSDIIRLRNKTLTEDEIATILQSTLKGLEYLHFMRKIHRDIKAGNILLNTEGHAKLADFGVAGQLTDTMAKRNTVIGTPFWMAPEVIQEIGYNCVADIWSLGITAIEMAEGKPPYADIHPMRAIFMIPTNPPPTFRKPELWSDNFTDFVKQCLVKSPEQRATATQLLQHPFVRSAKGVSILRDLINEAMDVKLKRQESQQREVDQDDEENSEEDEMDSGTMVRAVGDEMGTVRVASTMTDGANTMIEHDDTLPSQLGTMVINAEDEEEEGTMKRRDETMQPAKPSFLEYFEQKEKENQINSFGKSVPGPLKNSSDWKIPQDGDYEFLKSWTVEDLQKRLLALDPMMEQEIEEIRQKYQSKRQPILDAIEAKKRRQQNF

[6] = target: MAP/microtubule affinity-regulating kinase 3 (Homo sapiens) (UniProt P27448); test: Selectivity interaction (ActivX KiNativ screen (kinase selectivity in THP-1 cell lysates)) EUB0000639a MARK3; assay type: subcellular; details: lysate, at 1 µM
Insulin receptor = Insulin receptor (Homo sapiens, UniProt P06213); test: Selectivity interaction (KinomeScan (DiscoverX)) EUB0000092b INSR; details: at 10 µM
[7] = target: T3, Cyclin-dependent kinase-like 5 (Homo sapiens) (UniProt O76039); test: Selectivity interaction (KinomeScan (DiscoverX)) EUB0001619a CDKL5; details: at 1 µM
T3 sequence (whole entry): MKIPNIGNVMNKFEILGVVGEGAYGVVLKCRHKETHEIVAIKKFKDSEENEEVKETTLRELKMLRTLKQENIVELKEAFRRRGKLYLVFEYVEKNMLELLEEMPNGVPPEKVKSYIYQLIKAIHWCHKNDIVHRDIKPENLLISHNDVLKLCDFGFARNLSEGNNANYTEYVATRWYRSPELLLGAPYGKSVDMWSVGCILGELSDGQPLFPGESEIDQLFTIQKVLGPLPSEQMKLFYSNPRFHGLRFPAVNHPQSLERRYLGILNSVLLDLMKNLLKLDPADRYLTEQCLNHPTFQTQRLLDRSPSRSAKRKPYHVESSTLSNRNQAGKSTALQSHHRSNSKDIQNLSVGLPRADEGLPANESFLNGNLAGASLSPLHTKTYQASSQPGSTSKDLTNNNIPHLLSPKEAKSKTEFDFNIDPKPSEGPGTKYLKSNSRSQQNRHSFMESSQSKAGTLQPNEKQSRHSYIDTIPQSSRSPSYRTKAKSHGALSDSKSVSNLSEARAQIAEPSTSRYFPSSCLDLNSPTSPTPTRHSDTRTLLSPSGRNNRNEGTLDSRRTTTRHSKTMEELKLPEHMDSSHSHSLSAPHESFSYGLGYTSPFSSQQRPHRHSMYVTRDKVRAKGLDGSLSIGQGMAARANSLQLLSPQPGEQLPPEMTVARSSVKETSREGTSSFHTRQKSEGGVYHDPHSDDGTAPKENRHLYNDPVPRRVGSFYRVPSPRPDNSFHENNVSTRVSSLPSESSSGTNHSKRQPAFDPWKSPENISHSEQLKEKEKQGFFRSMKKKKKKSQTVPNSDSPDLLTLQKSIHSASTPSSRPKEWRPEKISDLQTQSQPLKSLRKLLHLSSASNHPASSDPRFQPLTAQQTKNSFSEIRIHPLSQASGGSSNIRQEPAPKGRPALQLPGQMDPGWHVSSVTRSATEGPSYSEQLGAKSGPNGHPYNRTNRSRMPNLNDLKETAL

[8] = target: Non-receptor tyrosine-protein kinase TYK2 (Homo sapiens, UniProt P29597); test: Selectivity interaction (Kinase panel (Carna Biosciences)) EUB0001542aTs TYK2; details: at 1 µM
Chain of Non-receptor tyrosine-protein kinase TYK2 (P29597 whole entry): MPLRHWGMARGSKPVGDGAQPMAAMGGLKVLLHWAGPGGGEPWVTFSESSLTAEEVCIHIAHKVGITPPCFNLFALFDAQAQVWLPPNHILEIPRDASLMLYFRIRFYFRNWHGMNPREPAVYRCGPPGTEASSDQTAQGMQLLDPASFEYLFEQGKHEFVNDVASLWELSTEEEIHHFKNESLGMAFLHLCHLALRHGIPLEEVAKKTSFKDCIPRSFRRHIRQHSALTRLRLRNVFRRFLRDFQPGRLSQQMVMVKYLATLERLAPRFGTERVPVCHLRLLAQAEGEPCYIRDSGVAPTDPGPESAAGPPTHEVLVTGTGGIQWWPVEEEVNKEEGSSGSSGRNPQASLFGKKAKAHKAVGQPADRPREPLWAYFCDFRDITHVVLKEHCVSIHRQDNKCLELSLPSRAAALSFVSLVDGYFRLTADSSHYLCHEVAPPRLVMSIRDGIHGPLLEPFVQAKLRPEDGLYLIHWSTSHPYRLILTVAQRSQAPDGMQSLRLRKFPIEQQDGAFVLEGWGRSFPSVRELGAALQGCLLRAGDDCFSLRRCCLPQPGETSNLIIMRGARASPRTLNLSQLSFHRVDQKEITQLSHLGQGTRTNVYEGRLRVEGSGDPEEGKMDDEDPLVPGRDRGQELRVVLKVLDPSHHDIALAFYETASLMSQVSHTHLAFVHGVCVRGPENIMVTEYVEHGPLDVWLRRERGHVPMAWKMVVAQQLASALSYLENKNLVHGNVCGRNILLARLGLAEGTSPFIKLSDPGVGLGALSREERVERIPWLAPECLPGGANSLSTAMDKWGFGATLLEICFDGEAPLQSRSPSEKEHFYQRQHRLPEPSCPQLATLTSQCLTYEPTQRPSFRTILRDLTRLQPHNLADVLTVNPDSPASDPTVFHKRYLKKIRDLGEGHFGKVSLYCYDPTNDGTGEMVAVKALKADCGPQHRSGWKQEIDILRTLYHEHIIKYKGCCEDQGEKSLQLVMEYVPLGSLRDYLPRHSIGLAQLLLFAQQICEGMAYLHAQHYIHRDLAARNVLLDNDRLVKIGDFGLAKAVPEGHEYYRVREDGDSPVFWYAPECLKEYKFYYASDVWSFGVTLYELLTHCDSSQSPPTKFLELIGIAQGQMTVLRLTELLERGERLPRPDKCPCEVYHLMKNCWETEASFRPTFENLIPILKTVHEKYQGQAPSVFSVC

Chain of RAF proto-oncogene serine/threonine-protein kinase (Homo sapiens) (P04049 whole entry): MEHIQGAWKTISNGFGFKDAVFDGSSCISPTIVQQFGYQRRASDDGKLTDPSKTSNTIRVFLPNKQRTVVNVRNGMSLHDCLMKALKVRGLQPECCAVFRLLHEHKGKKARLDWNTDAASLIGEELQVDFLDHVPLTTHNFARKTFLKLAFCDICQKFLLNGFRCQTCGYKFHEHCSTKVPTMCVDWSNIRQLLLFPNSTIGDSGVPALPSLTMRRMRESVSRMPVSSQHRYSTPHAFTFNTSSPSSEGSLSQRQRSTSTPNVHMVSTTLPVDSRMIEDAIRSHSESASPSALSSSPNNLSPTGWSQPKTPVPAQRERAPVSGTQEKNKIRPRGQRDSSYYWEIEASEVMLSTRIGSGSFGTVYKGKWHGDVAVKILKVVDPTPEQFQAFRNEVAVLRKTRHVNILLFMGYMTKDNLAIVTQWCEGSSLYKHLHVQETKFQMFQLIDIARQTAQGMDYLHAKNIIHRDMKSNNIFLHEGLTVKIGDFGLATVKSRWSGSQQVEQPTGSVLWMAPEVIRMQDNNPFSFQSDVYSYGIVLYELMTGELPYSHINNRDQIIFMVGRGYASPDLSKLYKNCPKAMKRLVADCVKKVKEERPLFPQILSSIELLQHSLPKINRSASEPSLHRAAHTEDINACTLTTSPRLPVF
Chain of Phosphatidylinositol 4,5-bisphosphate 3-kinase catalytic subunit beta isoform (Homo sapiens) (P42338 whole entry, looked up, canonical isoform): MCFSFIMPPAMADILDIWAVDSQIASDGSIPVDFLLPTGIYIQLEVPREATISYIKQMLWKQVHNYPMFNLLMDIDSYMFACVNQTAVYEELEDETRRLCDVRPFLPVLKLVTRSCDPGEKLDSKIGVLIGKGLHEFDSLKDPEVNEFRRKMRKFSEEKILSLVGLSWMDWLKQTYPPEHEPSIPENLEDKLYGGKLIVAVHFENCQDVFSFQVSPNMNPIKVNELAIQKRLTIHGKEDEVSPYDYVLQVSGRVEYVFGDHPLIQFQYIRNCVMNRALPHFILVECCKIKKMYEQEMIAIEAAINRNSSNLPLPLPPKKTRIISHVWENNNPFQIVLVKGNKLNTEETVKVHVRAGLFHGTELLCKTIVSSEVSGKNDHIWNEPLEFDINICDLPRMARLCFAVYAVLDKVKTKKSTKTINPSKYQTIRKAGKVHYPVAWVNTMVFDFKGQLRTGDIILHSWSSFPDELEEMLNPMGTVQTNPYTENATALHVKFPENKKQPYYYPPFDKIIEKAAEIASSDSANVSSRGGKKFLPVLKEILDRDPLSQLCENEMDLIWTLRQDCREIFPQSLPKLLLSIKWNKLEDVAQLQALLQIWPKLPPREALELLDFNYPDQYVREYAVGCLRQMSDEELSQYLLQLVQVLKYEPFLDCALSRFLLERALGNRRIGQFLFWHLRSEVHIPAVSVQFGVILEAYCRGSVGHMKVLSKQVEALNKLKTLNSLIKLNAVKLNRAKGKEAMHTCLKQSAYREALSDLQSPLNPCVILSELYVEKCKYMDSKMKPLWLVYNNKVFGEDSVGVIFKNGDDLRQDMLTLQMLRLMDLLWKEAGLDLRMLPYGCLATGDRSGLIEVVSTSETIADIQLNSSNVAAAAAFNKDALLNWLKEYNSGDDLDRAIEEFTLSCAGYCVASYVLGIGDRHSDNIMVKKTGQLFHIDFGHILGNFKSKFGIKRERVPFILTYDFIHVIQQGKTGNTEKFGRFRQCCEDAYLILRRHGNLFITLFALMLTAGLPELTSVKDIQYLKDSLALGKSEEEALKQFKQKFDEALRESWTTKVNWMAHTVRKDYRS
Chain of MAP/microtubule affinity-regulating kinase 3 (Homo sapiens) (P27448 whole entry, looked up): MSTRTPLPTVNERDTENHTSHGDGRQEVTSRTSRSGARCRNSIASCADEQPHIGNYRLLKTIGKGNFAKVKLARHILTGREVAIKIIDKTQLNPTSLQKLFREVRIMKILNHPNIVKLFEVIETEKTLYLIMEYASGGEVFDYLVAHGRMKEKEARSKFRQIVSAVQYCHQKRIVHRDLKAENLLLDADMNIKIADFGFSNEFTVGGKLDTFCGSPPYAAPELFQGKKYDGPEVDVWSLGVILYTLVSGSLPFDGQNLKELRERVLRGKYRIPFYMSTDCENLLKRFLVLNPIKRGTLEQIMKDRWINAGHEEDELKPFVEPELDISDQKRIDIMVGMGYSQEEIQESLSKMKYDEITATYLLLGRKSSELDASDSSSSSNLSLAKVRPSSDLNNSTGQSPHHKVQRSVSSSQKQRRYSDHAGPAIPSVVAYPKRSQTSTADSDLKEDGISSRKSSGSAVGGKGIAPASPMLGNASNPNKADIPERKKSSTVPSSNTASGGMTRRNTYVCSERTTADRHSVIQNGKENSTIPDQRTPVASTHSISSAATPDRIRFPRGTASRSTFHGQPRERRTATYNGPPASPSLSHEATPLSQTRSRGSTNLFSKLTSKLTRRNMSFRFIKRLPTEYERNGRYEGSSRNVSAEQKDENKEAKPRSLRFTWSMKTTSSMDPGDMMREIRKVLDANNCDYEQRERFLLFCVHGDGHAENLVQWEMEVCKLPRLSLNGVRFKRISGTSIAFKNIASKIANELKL
Chain of Activin receptor type-2B (Homo sapiens) (Q13705 whole entry, canonical isoform): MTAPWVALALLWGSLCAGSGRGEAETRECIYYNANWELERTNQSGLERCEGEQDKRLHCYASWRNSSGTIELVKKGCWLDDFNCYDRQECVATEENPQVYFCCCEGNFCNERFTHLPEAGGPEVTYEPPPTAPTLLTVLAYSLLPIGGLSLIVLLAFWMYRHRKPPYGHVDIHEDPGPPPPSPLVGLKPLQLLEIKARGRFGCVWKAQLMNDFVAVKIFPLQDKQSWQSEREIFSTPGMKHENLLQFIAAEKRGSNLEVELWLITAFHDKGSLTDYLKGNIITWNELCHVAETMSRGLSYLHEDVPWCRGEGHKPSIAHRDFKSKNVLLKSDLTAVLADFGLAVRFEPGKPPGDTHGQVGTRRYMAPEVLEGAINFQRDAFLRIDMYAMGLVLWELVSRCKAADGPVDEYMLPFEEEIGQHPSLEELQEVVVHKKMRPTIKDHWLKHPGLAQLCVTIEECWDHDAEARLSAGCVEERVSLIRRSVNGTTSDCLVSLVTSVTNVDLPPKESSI

## CNCCN1CCC(c2cc(CN(C)C(=O)c3cccc(Oc4ccccc4)c3)ccn2)CC1
[1]
  % activity: > 90%

## COc1cc(N(C)c2ccnc3ccc(C(F)(F)F)cc23)cc(OC)c1OC
[2]
  % binding: 91%

## Nc1cnc(N2CCc3cc(S(=O)(=O)Nc4c(F)cc(Cl)cc4F)cc(N4CCCC4=O)c32)nc1 [TP-020n]
[3]
  % of control: 80%

## C=CC(=O)Nc1ccc(C(=O)Nc2[nH]nc3c2CN(C(=O)N[C@H](CN(C)C)c2ccccc2)C3(C)C)cc1
[4]
  % of engagement: -21.2%

## CC[C@@H]1[C@H](F)C(=O)N[C@@H]1COc1nccc2cc(C(N)=O)c(OC)cc12 [ZIMLOVISERTIB]
[5]
  % of inhibition: 13.8%
[6]
  % of inhibition: 21.6%

## CCC(=O)N1CCN(c2ccc(-n3c(=O)ccc4cnc5ccc(-c6cnc7ccccc7c6)cc5c43)cc2C(F)(F)F)CC1
Insulin receptor
  % of control: 7.6%

## N#Cc1cccc(-c2c[nH]c3ncnc(N4CCOCC4)c23)c1
[7]
  % of control: 100%

## Cn1cc(Nc2nccc(N3CC4CCC(C3)N4C(=O)[C@@H]3CC3(F)F)n2)cn1
[8]
  % of inhibition: 98%
